In US20130071854A1, “METHODS FOR THE IDENTIFICATION AND CHARACTERIZATION OF HDAC INTERACTING COMPOUNDS” (priority 2009, published 2013):
Several values for one entry are separate records, joined by “and”; a condition that tells them apart may be missing. Equal values may be shown once. Read-outs that look alike come from different tables or passages of the source.

Columns and labels:
HDAC1 = molecular target: T1, HDAC1 (Homo sapiens, UniProt Q13547); assay: Chemoproteomic binding profiling, K562 cell extract, SAHA/ITF2357 probe matrix (Kd app); details: protein HDAC1; class I HDAC; read-out: Kd^app HDAC1
T1 construct: used to probe endogenous HDACs in K562 whole cell extracts; endogenous in cells

HDAC3 = molecular target: T2, HDAC3 (Homo sapiens, UniProt O15379); assay: as above; details: for Kd: protein HDAC3, NCoR complex
T2 construct: used to probe endogenous HDACs in K562 whole cell extracts; endogenous in cells
T2 sequence (O15379 whole entry): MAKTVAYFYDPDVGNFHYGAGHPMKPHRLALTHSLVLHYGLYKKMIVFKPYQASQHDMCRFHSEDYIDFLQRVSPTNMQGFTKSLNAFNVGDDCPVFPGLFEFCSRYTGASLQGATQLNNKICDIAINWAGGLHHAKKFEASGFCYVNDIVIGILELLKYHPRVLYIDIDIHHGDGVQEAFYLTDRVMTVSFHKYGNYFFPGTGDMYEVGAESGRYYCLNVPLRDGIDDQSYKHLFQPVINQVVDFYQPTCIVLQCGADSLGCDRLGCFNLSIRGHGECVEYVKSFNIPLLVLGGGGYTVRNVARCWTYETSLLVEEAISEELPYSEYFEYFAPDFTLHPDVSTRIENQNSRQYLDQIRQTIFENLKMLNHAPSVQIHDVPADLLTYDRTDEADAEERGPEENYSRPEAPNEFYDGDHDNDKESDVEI
T2 sequence (O75376 whole entry partner): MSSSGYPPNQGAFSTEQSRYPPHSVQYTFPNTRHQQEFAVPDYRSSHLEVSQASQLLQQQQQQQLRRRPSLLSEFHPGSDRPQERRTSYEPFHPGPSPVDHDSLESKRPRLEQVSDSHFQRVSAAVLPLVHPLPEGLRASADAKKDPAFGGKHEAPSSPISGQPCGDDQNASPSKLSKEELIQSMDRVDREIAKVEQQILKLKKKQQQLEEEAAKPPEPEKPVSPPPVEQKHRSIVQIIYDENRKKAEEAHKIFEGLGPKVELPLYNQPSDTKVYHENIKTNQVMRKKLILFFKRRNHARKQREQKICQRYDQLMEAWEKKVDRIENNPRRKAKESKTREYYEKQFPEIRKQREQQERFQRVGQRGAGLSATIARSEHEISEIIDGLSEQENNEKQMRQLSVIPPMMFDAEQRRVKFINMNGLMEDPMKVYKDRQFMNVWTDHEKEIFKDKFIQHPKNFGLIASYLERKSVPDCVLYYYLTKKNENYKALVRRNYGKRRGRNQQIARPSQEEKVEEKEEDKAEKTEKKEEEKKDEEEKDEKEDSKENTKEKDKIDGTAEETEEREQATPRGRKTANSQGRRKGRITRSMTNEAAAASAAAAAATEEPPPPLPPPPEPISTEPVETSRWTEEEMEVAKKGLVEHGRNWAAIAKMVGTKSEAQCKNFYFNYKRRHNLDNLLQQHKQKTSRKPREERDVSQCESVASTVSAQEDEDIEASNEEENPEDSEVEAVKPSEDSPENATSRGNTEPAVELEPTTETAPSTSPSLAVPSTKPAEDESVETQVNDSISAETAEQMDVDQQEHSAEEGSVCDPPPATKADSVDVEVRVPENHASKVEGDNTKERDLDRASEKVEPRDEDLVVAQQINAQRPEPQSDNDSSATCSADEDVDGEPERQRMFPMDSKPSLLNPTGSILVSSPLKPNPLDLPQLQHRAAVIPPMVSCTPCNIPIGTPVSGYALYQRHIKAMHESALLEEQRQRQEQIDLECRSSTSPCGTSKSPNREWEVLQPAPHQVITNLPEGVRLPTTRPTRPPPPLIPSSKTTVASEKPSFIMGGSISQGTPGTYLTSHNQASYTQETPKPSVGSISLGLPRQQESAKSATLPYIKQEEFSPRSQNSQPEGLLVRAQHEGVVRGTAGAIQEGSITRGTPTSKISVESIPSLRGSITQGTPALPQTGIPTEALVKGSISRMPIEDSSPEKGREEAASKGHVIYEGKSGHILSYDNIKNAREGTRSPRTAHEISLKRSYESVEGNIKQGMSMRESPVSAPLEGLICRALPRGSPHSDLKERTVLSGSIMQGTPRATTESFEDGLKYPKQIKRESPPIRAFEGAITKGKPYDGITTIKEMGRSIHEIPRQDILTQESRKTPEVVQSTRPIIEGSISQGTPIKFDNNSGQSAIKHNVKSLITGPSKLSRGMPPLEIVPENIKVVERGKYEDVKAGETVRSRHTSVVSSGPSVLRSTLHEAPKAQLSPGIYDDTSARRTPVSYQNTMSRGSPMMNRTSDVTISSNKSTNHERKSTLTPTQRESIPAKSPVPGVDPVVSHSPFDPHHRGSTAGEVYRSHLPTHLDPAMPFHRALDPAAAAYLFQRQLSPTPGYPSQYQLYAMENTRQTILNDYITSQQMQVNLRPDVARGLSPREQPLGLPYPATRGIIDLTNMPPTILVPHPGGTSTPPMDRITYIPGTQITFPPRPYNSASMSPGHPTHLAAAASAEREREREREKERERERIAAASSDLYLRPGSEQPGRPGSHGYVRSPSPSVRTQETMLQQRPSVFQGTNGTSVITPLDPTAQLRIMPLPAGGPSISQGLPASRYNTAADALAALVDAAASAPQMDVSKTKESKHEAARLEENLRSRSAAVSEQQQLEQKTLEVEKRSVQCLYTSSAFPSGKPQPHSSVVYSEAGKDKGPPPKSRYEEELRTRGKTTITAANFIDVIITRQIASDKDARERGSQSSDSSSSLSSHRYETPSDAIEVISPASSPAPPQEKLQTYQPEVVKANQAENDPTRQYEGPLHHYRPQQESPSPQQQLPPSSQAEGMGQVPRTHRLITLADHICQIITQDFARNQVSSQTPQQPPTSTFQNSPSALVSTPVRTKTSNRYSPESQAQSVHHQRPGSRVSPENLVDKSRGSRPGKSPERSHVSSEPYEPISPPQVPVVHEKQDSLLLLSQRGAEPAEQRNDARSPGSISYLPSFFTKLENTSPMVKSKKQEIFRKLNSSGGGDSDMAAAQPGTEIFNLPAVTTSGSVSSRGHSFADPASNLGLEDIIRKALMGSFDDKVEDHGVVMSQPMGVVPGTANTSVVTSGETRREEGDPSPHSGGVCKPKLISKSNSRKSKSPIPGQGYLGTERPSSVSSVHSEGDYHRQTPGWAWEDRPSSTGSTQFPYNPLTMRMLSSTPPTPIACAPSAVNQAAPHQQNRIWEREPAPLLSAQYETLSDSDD
T2 sequence (O60907 whole entry partner): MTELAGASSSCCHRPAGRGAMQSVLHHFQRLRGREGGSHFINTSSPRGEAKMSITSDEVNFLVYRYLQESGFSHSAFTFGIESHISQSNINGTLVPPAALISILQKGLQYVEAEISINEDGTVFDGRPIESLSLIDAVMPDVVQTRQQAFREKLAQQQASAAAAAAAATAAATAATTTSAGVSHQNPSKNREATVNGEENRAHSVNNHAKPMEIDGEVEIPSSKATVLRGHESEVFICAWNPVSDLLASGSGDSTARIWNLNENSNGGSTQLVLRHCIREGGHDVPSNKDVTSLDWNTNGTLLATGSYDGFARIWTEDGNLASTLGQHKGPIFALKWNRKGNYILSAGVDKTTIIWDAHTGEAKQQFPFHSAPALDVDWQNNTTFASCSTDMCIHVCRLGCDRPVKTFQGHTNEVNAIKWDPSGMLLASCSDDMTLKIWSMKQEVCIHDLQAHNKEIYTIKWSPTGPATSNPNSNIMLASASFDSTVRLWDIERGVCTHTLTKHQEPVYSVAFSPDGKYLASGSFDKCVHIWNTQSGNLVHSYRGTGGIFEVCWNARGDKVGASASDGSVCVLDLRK
T2 sequence (Q9BZK7 whole entry partner): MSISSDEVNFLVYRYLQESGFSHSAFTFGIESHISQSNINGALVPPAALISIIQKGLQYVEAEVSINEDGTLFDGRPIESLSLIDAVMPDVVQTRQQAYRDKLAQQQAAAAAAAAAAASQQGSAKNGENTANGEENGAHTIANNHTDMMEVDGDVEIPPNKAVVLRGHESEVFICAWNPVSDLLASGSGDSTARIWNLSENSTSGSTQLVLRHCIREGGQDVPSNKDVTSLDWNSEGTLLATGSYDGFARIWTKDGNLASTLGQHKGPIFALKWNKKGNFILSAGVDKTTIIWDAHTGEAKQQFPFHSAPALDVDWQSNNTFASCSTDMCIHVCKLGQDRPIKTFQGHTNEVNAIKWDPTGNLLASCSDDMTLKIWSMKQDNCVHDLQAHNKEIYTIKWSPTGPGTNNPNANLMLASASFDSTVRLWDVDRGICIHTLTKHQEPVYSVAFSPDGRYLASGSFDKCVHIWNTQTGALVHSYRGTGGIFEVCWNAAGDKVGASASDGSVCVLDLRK
T2 sequence (Q13227 whole entry partner): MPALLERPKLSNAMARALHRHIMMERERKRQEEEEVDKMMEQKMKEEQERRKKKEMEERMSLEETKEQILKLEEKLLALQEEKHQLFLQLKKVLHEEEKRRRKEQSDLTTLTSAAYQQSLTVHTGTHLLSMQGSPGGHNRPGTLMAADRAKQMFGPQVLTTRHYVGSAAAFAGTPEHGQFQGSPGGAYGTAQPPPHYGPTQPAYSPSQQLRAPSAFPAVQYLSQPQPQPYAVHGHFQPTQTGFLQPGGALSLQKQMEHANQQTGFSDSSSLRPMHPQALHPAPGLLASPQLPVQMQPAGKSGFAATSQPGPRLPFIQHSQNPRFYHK

CoREST complex = assay: as above; set-up: species or system human
HDAC3-NCoR complex = HDAC3-NCoR complex (Homo sapiens, UniProt O15379); assay: as above
Sequence of HDAC3-NCoR complex (O15379 whole entry, one chain of several): as the sequence (O15379 whole entry) above

MIER1 = assay: Chemoproteomic binding profiling, K562 cell extract, SAHA/ITF2357 probe matrix (Kd app), ELSA (ELM-SANT) domain protein; set-up: species or system human; details: ELSA (ELM-SANT) domain proteins
MIER3 = assay: as above; set-up: species or system human; details: ELSA (ELM-SANT) domain proteins
EHMT2 = assay: Chemoproteomic binding profiling, K562 cell extract, SAHA/ITF2357 probe matrix (Kd app), ELSA (ELM-SANT) domain proteins group; set-up: species or system human; details: protein EHMT2
HDAC6 = molecular target: T3, HDAC6 (Homo sapiens, UniProt Q9UBN7); assay: Chemoproteomic binding profiling, K562 cell extract, SAHA/ITF2357 probe matrix (Kd app); set-up: used to probe endogenous HDACs in K562 whole cell extracts; endogenous in cells; details: for binding profile for HDAC6 (in words): K562 cell extract
T3 sequence (Q9UBN7 1-1215): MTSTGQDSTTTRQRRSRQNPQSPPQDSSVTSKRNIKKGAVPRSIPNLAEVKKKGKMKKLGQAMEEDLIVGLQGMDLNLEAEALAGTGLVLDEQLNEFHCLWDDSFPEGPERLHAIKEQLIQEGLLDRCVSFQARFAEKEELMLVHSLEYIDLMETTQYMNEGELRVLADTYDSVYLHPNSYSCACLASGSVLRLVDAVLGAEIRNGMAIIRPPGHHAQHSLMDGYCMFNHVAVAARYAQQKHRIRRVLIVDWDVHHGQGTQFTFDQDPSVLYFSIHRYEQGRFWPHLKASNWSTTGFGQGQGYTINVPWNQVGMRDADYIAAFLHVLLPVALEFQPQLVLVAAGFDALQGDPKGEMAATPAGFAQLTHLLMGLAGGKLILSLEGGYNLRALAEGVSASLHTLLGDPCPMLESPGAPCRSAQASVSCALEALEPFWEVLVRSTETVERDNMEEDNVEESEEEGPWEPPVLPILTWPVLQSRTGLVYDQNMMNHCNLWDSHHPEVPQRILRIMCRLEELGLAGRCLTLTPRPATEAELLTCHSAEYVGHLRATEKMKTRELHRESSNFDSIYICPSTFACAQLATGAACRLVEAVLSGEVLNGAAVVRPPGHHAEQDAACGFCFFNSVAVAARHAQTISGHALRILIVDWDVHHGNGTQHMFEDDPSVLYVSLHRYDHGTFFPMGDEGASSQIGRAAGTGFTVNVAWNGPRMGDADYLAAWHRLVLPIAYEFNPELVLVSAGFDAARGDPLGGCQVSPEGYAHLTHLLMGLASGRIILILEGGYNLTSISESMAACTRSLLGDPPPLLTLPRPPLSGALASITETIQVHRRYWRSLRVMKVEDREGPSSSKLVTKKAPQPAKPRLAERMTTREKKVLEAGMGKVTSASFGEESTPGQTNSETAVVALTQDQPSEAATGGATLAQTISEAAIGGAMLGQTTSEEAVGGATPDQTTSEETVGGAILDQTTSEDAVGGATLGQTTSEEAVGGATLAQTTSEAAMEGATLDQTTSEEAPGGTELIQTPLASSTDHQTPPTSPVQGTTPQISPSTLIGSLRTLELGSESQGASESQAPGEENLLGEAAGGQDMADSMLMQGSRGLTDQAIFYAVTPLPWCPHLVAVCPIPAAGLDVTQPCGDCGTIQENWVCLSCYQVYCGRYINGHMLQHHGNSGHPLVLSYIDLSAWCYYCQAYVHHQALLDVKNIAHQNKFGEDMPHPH

HSPD1 = molecular target: T4, HSPD1 (Homo sapiens, UniProt P10809); assay: Competition binding assay in cell lysate, affinity matrix, MS
T4 construct: endogenous in cells
T4 sequence (P10809 27-573): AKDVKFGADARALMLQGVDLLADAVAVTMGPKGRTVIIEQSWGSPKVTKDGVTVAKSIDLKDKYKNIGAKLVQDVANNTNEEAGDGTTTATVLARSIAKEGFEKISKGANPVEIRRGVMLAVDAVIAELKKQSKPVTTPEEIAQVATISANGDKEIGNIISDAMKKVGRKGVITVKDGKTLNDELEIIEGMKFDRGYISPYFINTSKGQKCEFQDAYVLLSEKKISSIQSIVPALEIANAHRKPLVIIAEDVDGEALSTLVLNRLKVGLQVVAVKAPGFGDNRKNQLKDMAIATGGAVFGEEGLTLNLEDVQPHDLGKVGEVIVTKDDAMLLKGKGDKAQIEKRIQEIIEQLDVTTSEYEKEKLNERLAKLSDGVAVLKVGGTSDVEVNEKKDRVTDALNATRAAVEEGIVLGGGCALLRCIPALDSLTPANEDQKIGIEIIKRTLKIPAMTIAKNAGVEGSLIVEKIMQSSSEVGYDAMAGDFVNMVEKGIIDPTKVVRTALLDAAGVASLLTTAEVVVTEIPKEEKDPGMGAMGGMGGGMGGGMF

PTER = molecular target: T5, PTER (Homo sapiens, UniProt Q96BW5); assay: as above
T5 construct: endogenous in cells
T5 sequence (Q96BW5 1-349): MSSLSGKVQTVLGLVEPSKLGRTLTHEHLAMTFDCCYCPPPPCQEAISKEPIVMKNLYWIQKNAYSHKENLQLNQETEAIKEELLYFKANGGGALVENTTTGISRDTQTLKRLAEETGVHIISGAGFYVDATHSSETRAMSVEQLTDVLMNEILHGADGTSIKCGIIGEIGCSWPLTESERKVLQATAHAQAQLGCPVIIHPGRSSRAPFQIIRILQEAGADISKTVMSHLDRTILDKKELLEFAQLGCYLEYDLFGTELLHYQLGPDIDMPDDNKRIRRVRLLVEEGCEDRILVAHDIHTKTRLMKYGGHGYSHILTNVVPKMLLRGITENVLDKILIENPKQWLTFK

GATAD2B = assay: Competition binding assay in cell lysate, affinity matrix, MS (Mi-2/NuRD interactor); details: K-562 cell lysate
MTA3 = assay: as above
RBBP7 = assay: Competition binding assay in cell lysate, affinity matrix, MS (Sin3/Mi2-NuRD interactor); details: K-562 cell lysate
acetylated tubulin = assay: Cell-based tubulin acetylation assay (immunofluorescence, western blotting); set-up: species or system human; details: for tubulin acetylation (in words): K562 and HeLa cells, immunofluorescence and western blotting
[1] = tested on: acetylated histones H3 and H4; assay: Cell-based histone acetylation assay (immunofluorescence, western blotting); set-up: species or system human; details: K562 and HeLa cells
[2] = protein GSE1, CoREST complex, read-out: Kd^app GSE1
[3] = protein HMG20A, CoREST complex, read-out: Kd^app HMG20A
[4] = protein HMG20B, CoREST complex, read-out: Kd^app HMG20B
[5] = protein RCOR1, CoREST complex, read-out: Kd^app RCOR1
[6] = protein RCOR2, CoREST complex, read-out: Kd^app RCOR2
[7] = protein RCOR3, CoREST complex, read-out: Kd^app RCOR3
[8] = protein ZMYM2, CoREST complex, read-out: Kd^app ZMYM2
[9] = protein ZMYM3, CoREST complex, read-out: Kd^app ZMYM3
[10] = protein GPS2, read-out: Kd^app GPS2
[11] = protein NCOR1, read-out: Kd^app NCOR1
[12] = protein NCOR2, read-out: Kd^app NCOR2
[13] = protein TBL1X, read-out: Kd^app TBL1X
[14] = protein TBL1XR1, read-out: Kd^app TBL1XR1
[15] = protein HDAC6, class II HDAC, read-out: Kd^app HDAC6

| SMILES | Kd (HDAC1) | Kd (HDAC3) | Kd (CoREST complex; [2]) | Kd (CoREST complex; [3]) | Kd (CoREST complex; [4]) | Kd (CoREST complex; [5]) | Kd (CoREST complex; [6]) | Kd (CoREST complex; [7]) | Kd (CoREST complex; [8]) | Kd (CoREST complex; [9]) | Kd (HDAC3-NCoR complex; [10]) | Kd (HDAC3-NCoR complex; [11]) | Kd (HDAC3-NCoR complex; [12]) | Kd (HDAC3-NCoR complex; [13]) | Kd (HDAC3-NCoR complex; [14]) | Kd (MIER1) | Kd (MIER3) | Kd (EHMT2) | tubulin acetylation (in words) (acetylated tubulin) | histone acetylation (in words) [1] | further results |
| --- | --- | --- | --- | --- | --- | --- | --- | --- | --- | --- | --- | --- | --- | --- | --- | --- | --- | --- | --- | --- | --- |
| Nc1ccccc1NC(=O)CCCCCCC(=O)Nc1ccccc1 [BML-210] | 36 µM | 7 µM | 51 µM | 40 µM | 50 µM | 46 µM | 85 µM | 55 µM | > 85 µM | > 85 µM | 4 µM | 7 µM | 15 µM | 4 µM | 4 µM | 50 µM | 47 µM | > 85 µM |  |  | selectivity for HDAC3 over HDAC1/HDAC2 (in words) (HDAC3; K562 cell extract, compared with SAHA): increase in selectivity for HDAC3 over HDAC1/HDAC2; binding profile for HDAC6 (in words) (HDAC6): complete loss of potency for class IIb; Kd (HDAC6; [15]): > 85 µM |
| Nc1ccccc1NC(=O)c1ccc(CNC(=O)OCc2cccnc2)cc1 [MS-275] |  |  |  |  |  |  |  |  |  |  |  |  |  |  |  | > 300 µM | > 300 µM | > 300 µM |  |  | IC50 (HSPD1; read-out: IC50): ≥ 300 µM; IC50 (PTER): ≥ 300 µM; Kd (CoREST complex; read-out: Kd^app GSE1): > 300 µM; Kd (CoREST complex; read-out: Kd^app HMG20A): > 300 µM; Kd (CoREST complex; read-out: Kd^app HMG20B): > 300 µM; Kd (CoREST complex; read-out: Kd^app PHF21A): > 300 µM; Kd (CoREST complex; read-out: Kd^app RCOR1): > 300 µM; Kd (CoREST complex; read-out: Kd^app RCOR2): > 300 µM; Kd (CoREST complex; read-out: Kd^app RCOR3): > 300 µM; Kd (CoREST complex; read-out: Kd^app ZMYM2): > 300 µM; Kd (CoREST complex; read-out: Kd^app ZMYM3): > 300 µM; IC50 (GATAD2B): 300 µM; IC50 (MTA3; K-562 cell lysate): 300 µM; IC50 (RBBP7): 300 µM |
| O=C(CCCCCCC(=O)Nc1ccccc1)NO [SAHA, suberoylanilide hydroxamic acid] |  |  |  |  |  |  |  |  |  |  |  |  |  |  |  |  |  |  | increased steady state acetylation of tubulin and histones | increased steady state acetylation of tubulin and histones | IC50 (HSPD1; IC50, HSPD1, mix of Jurkat and Ramos cell lysates): 10 µM; IC50 (HSPD1; read-out: IC50): ≥ 10 µM; IC50 (PTER): ≥ 10 µM; IC50 (PTER; IC50, PTER, mix of Jurkat and Ramos cell lysates): 10 µM; IC50 (GATAD2B): 2.5 µM; IC50 (MTA3; K-562 cell lysate): 1.93 µM; IC50 (MTA3; mix of Jurkat and Ramos cell lysates): 1.8 µM and 1.82 µM; IC50 (RBBP7): 10 µM |
| O=C(/C=C/c1cccc(S(=O)(=O)Nc2ccccc2)c1)NO [belinostat] |  |  |  |  |  |  |  |  |  |  |  |  |  |  |  | 0.17 µM |  |  |  |  | Kd (HDAC6): 0.41 µM |
| CCCCOc1ccc(CC(=O)NO)cc1 [bufexamac] | > 59.7 µM | 348 µM | > 59.7 µM | > 59.7 µM | > 59.7 µM | > 59.7 µM | > 59.7 µM | > 59.7 µM | 128 µM | 172 µM | 599 µM | > 59.7 µM | 418 µM | 542 µM | 530 µM | 367 µM | 165 µM | 105 µM | hyperacetylation of tubulin | did not affect the acetylation of histones | EC50 (acetylated tubulin; Homo sapiens, HeLa cells, treated 4 h, western blotting): 2.9 µM; tubulin acetylation (in words) (acetylated tubulin; listed as Bufexamac): strong increase in acetylated tubulin; binding profile for HDAC6 (in words) (HDAC6): selectivity for HDAC6 and HDAC10; Kd (HDAC6; [15]): 10 µM |
| CCCC(CCC)C(=O)O [valproate, valproic acid] | 358 µM |  | 224 µM | 322 µM | 380 µM | 258 µM | 311 µM | 274 µM | 700 µM | 922 µM |  |  |  |  |  | 507 µM | 344 µM | 1210 µM | did not affect tubulin | elicited staining of acetylated histones | Kd (CoREST complex; protein PHF21A, CoREST complex, read-out: Kd^app PHF21A): 438 µM; Kd (HDAC6; read-out: Kd^app HDAC6, protein HDAC6, class II HDAC): > 10 µM |
